This note sets out measurements from ChEMBL document CHEMBL3860104, “Fragment-Based Approach to the Development of an Orally Bioavailable Lactam Inhibitor of Lipoprotein-Associated Phospholipase A2 (Lp-PLA2)” (J Med Chem, 2016).

The structures appear in SMILES notation. ≈ marks a conversion by molar mass, not a printed value.

Series [1] addresses T1, Platelet-activating factor acetylhydrolase (Homo sapiens, UniProt Q13093).
T1 sequence (Q13093 whole entry): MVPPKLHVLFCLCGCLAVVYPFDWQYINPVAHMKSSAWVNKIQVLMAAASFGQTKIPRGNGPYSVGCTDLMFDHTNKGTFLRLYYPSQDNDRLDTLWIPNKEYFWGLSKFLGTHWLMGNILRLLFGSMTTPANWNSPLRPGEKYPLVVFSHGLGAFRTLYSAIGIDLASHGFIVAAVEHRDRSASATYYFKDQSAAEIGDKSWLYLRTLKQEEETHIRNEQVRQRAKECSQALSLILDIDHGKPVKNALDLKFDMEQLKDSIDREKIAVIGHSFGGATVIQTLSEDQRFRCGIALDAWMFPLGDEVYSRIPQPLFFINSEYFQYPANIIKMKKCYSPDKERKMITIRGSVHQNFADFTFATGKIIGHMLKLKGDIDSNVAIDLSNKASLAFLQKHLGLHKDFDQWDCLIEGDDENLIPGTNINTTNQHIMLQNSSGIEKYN
Description: Inhibition of recombinant human Lp-PLA2 pre-incubated for 30 mins before PED6 fluorogenic substrate

A short description of series [2]: Volume of distribution at steady state in Beagle dog at 0.5/1 mg/kg, iv or 0.5 mg/kg, po by LC/MS-MS method. The format is ADME, organism-based, Canis lupus familiaris. The note with it: in vivo, read-out: Vdss.
Series [3] in a line: Permeability at pH 7.4 by PAMPA method. The format is ADME. To be noted: read-out: permeability. (In general: The PAMPA barrier holds no transporters, so it reflects passive diffusion.)
Series [4] can be described thus: Intrinsic clearance rat liver microsomes at 30 ug/mL pre-incubated for 7 mins before NADPH addition by LC/MS-MS method. The format is ADME.
Series [5] can be described thus: Protein binding in dog plasma at 10 uM incubated for 4 hrs by LC/MS-MS based rapid equilibrium dialysis method. The format is ADME, cell-free, Canis lupus familiaris. To be noted: read-out: PPB (converted). On the technique in general: Equilibrium dialysis compares concentrations on both sides of a semipermeable membrane.
Another series has as its target Cytochrome P450 3A4 (Homo sapiens, UniProt P08684). The series can be described thus: Inhibition of CYP3A4 (unknown origin) expressed in Escherichia coli co-expressing human NADPH reductase using both 7-benzyloxyquinolone and diethoxyfluorescein substrate in presence of NADPH regenerating system incubated for 10 mins by spectrofluorometry. The format is ADME.
A short description of series [6]: Solubility of the compound by quantitative NMR method. The class given is physicochemical.
Series [7] is described as follows: Protein binding in rat plasma at 10 uM incubated for 4 hrs by LC/MS-MS based rapid equilibrium dialysis method. The class given is ADME, cell-free. The note with it: read-out: PPB (converted).
Series [8] in a line: Volume of distribution at steady state in Han Wistar rat at 1 mg/kg, iv or 3 mg/kg, po administered as bolus dose by LC/MS-MS method. The class given is ADME, organism-based. The note with it: in vivo, read-out: Vdss.
A short description of series [9]: Solubility in pH 7.4 PBS by CLND assay.
The nature of series [10]: Lipophilicity, log D of the compound by chromatography. The format is physicochemical.
The nature of series [11]: Clearance in Beagle dog at 0.5/1 mg/kg, iv or 0.5 mg/kg, po by LC/MS-MS method. The class given is ADME, organism-based, Canis lupus familiaris. The note with it: in vivo.
Series [12] can be described thus: Half life in Han Wistar rat at 1 mg/kg, iv or 3 mg/kg, po administered as bolus dose by LC/MS-MS method. The class given is ADME, organism-based. To be noted: in vivo.
The nature of series [13]: Clearance in Han Wistar rat at 1 mg/kg, iv or 3 mg/kg, po administered as bolus dose by LC/MS-MS method. The class given is ADME, organism-based. The note with it: in vivo.
Series [14] in a line: Half life in Beagle dog at 0.5/1 mg/kg, iv or 0.5 mg/kg, po by LC/MS-MS method. The class given is ADME, organism-based, Canis lupus familiaris. The note with it: in vivo.
For series [15], the target named is T1, Platelet-activating factor acetylhydrolase. This is another data set of the same source.
Description: Inhibition of recombinant human Lp-PLA2 incubated for 20 mins by Thio-PAF assay
Series [16] shares this target. This is another data set of the same source.
Description: Inhibition of Lp-PLA2 in whole human plasma pre-incubated for 15 mins before 2-thio-PAF substrate addition
Series [17] is described as follows: Oral bioavailability in Han Wistar rat at 3 mg/kg administered as bolus dose by LC/MS-MS method. The class given is ADME, organism-based. The note with it: in vivo.
Series [18] in a line: Oral bioavailability in Beagle dog at 0.5 mg/kg by LC/MS-MS method. The class given is ADME, organism-based, Canis lupus familiaris. The note with it: in vivo.
A short description of series [19]: Stability in rat blood assessed as compound remaining level. The format is ADME, tissue-based.

Chain of Cytochrome P450 3A4 (P08684 whole entry): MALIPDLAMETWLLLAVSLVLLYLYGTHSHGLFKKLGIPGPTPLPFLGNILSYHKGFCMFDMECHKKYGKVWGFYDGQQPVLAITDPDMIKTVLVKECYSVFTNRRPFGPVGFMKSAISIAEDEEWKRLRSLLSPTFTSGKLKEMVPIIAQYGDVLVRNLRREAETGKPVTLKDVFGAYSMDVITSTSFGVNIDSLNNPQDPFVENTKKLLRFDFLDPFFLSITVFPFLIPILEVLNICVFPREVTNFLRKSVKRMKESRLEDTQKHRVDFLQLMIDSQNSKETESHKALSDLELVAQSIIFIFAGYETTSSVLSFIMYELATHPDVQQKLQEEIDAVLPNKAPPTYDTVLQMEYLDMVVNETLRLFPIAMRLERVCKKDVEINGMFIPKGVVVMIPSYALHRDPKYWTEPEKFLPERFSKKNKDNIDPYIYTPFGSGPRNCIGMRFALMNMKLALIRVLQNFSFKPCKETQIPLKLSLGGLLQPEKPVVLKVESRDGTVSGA

With `CN1CC(=O)N(CCOc2ccccc2)C1=O`, the half-inhibitory concentration (IC50) (usually the concentration that inhibits the measured activity by half) in series [1] was 1000 µM.
The same measure, in the same setting: then `CC1(C)CN(CCOc2ccc(F)cc2)C(=O)N1`, with 39 µM; and `CC1(C)CCC(=O)N(CCOc2ccc(F)cc2)C1`, with 10 µM.
Same read-out and setting: then `O=C1NC2(CCCCC2)C(=O)N1CCOc1ccc(F)cc1`, with 14 µM.
As for `CC1([C@@H]2CC(=O)N(CCOc3ccc(F)c(C#N)c3)C2)CCS(=O)(=O)CC1`, the Vd in series [2] came out at 1.3 L/kg; in series [8] it was 1.2 L/kg. The Papp in series [3] turned out to be 3.6 ×10⁻⁶ cm/s. For the same compound, the CLH in [4] was found to be 1.1 mL/min/g. In addition, the fraction unbound at 4 h, 10 µM is 0.75 in [5] and 0.8 in series [7]. For the same compound, the IC50 on Cytochrome P450 3A4 was over 50 µM. The amount in solution in [6] (solubility) came to 3.5 mM (≈ 1380 µg/mL). Moreover, in series [9], the solubility (kinetic) (as a rule, the concentration staying in solution when a stock, usually in DMSO, is diluted into the medium) is over 509 µM. For the same compound, the chromatographic logD (commonly lipophilicity estimated from chromatographic retention) in [10] was determined as 3. The clearance came to 11 mL/min/kg in [11] and 67 mL/min/kg in series [13]. The half-life – broadly, the time needed for the level to fall by half in the phase considered – in series [12] was 20.4 min; in [14], 78 min.
For the compound `C[C@]1(c2ccccc2)CC(=O)N(CCOc2ccc(F)c(C#N)c2)C1`, in [15], 1000 nM corresponded to half-maximal inhibition (IC50).
With `CC(C)[C@@]1(C)CC(=O)N(CCOc2ccc(F)c(C#N)c2)C1`, the IC50 in [16] was 13000 nM; in [15] it was 5400 nM.
Compound `CN1C(=O)N(CCOc2ccccc2)C(=O)C1(C)C` gave an IC50 in series [1] of 20 µM.
With `CC(C)[C@]1(C)CC(=O)N(CCOc2ccc(F)c(C#N)c2)C1`, the figures for the IC50 in series [16] and in series [15] were 6200 nM and 2300 nM, respectively.
`CN1CCC(C)([C@H]2CC(=O)N(CCOc3ccc(F)c(C#N)c3)C2)CC1` yielded a chromatographic logD in series [10] of 1.7.
Consider `CC1([C@@H]2CC(=O)N(CCOc3ccc(F)c(F)c3)C2)CCS(=O)(=O)CC1`, for which, in series [3], the Papp amounted to 17 ×10⁻⁶ cm/s. Besides, the IC50 in series [16] was 100 nM; on Cytochrome P450 3A4, over 50 µM; in series [1] it was 0.086 µM. Besides, the fraction unbound at 4 h, 10 µM in series [7] was 0.7. In addition, in [9], the kinetic solubility was over 450 µM. Besides, in series [10], the chromatographic logD is 3.4.
Turning to `CC1(C)CC(=O)N(CCOc2ccc(F)cc2)C1`, the concentration for half-maximal inhibition (IC50) in series [1] turned out to be 11 µM.
Regarding `CC1([C@H]2CC(=O)N(CCOc3ccc(F)c(C#N)c3)C2)CCS(=O)(=O)CC1`, the chromatographic logD in series [10] was found to be 2.8.
For the compound `CC1(C)CC(=O)N(CCOc2ccc(F)c(C#N)c2)C1`, the figures for the IC50 in series [15] and in series [1] were 15000 nM and 3 µM, respectively.
In series [15], `C[C@@]1(c2ccccc2)CC(=O)N(CCOc2ccc(F)c(C#N)c2)C1` had a half-maximal inhibitory concentration (IC50) of 1600 nM.
In the case of `CN1CCC(C)(C2CC(=O)N(CCOc3ccc(F)c(C#N)c3)C2)CC1.Cl` (racemic), the figures for the Vd in [2] and in [8] were 2.5 L/kg and 3.2 L/kg, respectively. Besides, the bioavailability (in general, dose-corrected exposure relative to a reference, in per cent) in [17] stood at 52%; in series [18], 76%. The clearance in [11] was 8.6 mL/min/kg; in series [13], 24 mL/min/kg. Besides, the half-life in series [12] is 108 min; in series [14] it was 192 min.
For the compound `CN1CCC(C)(C2CC(=O)N(CCOc3ccc(F)c(C#N)c3)C2)CC1` (racemic), the Papp in series [3] worked out at 21 ×10⁻⁶ cm/s. In addition, the fraction unbound at 4 h, 10 µM in series [5] was 0.56; in series [7], 0.71. Besides, the IC50 on Cytochrome P450 3A4 was over 50 µM. In series [9], this compound came in with a solubility (kinetic) of over 396 µM.
`N#Cc1cc(OCCN2CC(c3ccccc3)CC2=O)ccc1F` (racemic): the IC50 in [15] worked out at 860 nM.
As for `CC1(C2CC(=O)N(CCOc3ccc(F)cc3)C2)CCS(=O)(=O)CC1` (racemic), the IC50 in series [16] turned out to be 1500 nM; in series [1] it was 0.76 µM. This compound also had a chromatographic logD in series [10] of 3.1.
Regarding `CC1(C2CC(=O)N(CCOc3ccc(F)c(F)c3)C2)CCS(=O)(=O)CC1` (racemic), the concentration for half-maximal inhibition (IC50) came to 290 nM in [16] and 0.16 µM in [1]. This compound also yielded a bioavailability in series [17] of 47%. Moreover, in [8], the Vd worked out at 0.63 L/kg. In [10], this compound showed a chromatographic logD of 3.4. Also, in series [12], the half-life is 21 min. In series [13], this compound yielded a clearance of 22 mL/min/kg.
Regarding `CC(C)C1CC(=O)N(CCOc2ccc(F)c(C#N)c2)C1` (racemic), the half-maximal inhibitory concentration (IC50) in series [15] is 1900 nM.
The same measure, in the same setting: for `CC(C)C1(C)CC(=O)N(CCOc2ccc(F)c(C#N)c2)C1` (racemic) the value was 2000 nM.
For the compound `CC(=O)N1CCC(C)(C2CC(=O)N(CCOc3ccc(F)c(C#N)c3)C2)CC1` (racemic), the IC50 in [16] came to 660 nM; in series [1] it was 0.25 µM. In series [10], this compound gave a chromatographic logD of 2.9.
For `CC1(C2CC(=O)N(CCOc3ccc(F)c(C#N)c3)C2)CCOCC1` (racemic) the same measures were 260 nM, 0.16 µM and 3.7.
For `CC(C)(C)C1CC(=O)N(CCOc2ccc(F)c(C#N)c2)C1` (racemic), the IC50 in series [16] came to 5100 nM; in series [15], 980 nM.
`CC1(C2CC(=O)N(CCOc3ccc(F)c(C#N)c3)C2)CCS(=O)(=O)CC1` (racemic): in series [19], the Stability is reported as 100%. For the same compound, in series [10], the chromatographic logD was determined as 2.8.
Regarding `CC1(C2CC(=O)N(CCOc3ccc(F)c(C#N)c3)C2)CCNCC1` (racemic; form 1), the chromatographic logD in series [10] was determined as 1.5.
On to `CC1(C2CC(=O)N(CCOc3ccc(F)c(C#N)c3)C2)CCNCC1.Cl` (racemic; form 2), for which, in series [3], the Papp was under 0.3 ×10⁻⁶ cm/s. The compound also yielded a bioavailability in series [17] of under 5%. The concentration for half-maximal inhibition (IC50) on Cytochrome P450 3A4 is over 50 µM. In addition, the fraction unbound at 4 h, 10 µM in series [7] is 0.81. Further, in series [8], the Vd was 2 L/kg. Moreover, the solubility (kinetic) in [9] came to 242 µM. The logD (in general, lipophilicity at a set pH, counting ionised and neutral species) in [10] stood at 1.5. Moreover, the half-life in series [12] is 144 min. The compound further showed a clearance in series [13] of 15 mL/min/kg.
`CCN(CC)CCN(Cc1ccc(-c2ccc(C(F)(F)F)cc2)cc1)C(=O)Cn1c(SCc2ccc(F)cc2)nc(=O)c2c1CCC2` [DARAPLADIB] came in with a solubility (kinetic) in series [9] of 8 µM (≈ 5.33 µg/mL). Moreover, the chromatographic logD in series [10] came to 6.3.
